In US20140357512A1, “HISTONE DEACETYLASE (HDAC) BIOMARKERS IN MULTIPLE MYELOMA” (priority 2013, published 2014):

Tested on: human myeloma cell line MM.1S
Test: SILAC acetylated-lysine peptide profiling, HDAC inhibitor vs DMSO (light/heavy ratio)
Assay type: cell-based
Source text: An embodiment of the invention comprises utilizing the SILAC method in order to quantitate changes in protein expression between two or more populations of cells. The SILAC method is a technique based on mass spectrometry that detects differences in protein abundance among samples using non-radioactive isotopic labeling. The SILAC method is known in the art, and described in detail in Ong et al., “Stable Isotope Labeling by Amino Acids in Cell Culture, SILAC, as a Simple and Accurate Approach to Expression Proteomics”, Molecular & Cellular Proteomics, vol. 1, pp. 376-386 (2002), which is incorporated herein by reference in its entirety.
Briefly, the SILAC method involves growing two populations of cells in cell culture. The first population of cells is grown in growth media containing normal amino acids (“normal media”). The second population of cells is grown in media lacking a standard essential amino acid (such as lysine), but is then supplemented with a non-radioactive, isotopically labeled form of that essential amino acid (such as lysine labeled with ^13C atoms, rather than normal ^12C atoms), which is called “heavy media”. When the two populations of cells are each growing in the medium, they incorporate the amino acids into all of their proteins. The growth of cells maintained in the heavy media is no different from that in normal media. All peptides containing the heavy amino acids are heavier than their normal counterparts. The cells from each of the two populations of cells are lysed. The lysates from each of the two cell populations are then combined. The combined cell lysates are then analyzed by mass spectrometry. Pairs of chemically identical peptides of different stable isotope composition can be differentiated in a mass spectrometer due to their difference in mass. The ratio of peak intensities in the mass spectrum for such peptide pairs reflects the abundance ratio for the two proteins.
This example describes SILAC studies that were performed to compare the effects of three different HDAC inhibitors (Compound A, Compound B, and tubastatin A) to a control on a human multiple myeloma cell line. The HDAC inhibitors were also compared amongst themselves to determine differences in their effects.
A human myeloma cell line MM.1S was grown using either ^12C (light) or ^13C (heavy) lysine containing culture medium. The “heavy” cells were treated with DMSO as the control, and the “light” cells were treated with a single HDAC inhibitor at 37° C. for 6 hours. The heavy and light cells were lysed, and the lysates were mixed in 1:1 ratio and digested with the protease trypsin. The acetylated lysine containing peptides (due to the action of the HDAC inhibitor) in the digested peptide pool were captured by a non-specific anti-acetylated lysine antibody cocktail (the antibodies identify both light and heavy acetylated peptides), and subjected to mass spectrometry analysis in order to identify thousands of individual peptides.
Thousands of peptides were identified in pairs (^12C and ^13C) due to their known mass differences. The amino acid sequence and quantitative ratio (Light/Heavy) of a given peptide in two differentially treated cell lysates were then determined and annotated with their possible protein (gene) sources.
As stated above, three HDAC inhibitors (Compound A, Compound B, and Tubastatin A) were used. Thus, the SILAC method was performed three times, with a different HDAC inhibitor compared to a control each time. Accordingly, there are three pairs of quantitative data in the table below, i.e., Compound A:DMSO, Compound B:DMSO, and Tubastatin A:DMSO. A cut-off of 1.30 fold of change (increase or decrease) was then used to determine “changed” or “+” in the table, and any peptides with a fold of change less than 1.3 fold were determined to be “unchanged” or “0” in the table. Those peptides that were not identified were marked as “NA” in the table. […]

Compound: O=C(CCCCCCNC(=O)c1cnc(N(c2ccccc2)c2ccccc2)nc1)NO [Compound A, 2-(diphenylamino)-N-(7-(hydroxyamino)-7-oxoheptyl)pyrimidine-5-carboxamide]
- light to heavy ratio (L/H ratio) of acetylated peptide EIAENALGK(ac)HK (SEQ ID NO: 617) (Isoform 1 of Heterogeneous nuclear ribonucleoprotein H3 [76], gene HNRNPH3, inhibitor:DMSO): 0.47 log 2
- light to heavy ratio (L/H ratio) of acetylated peptide DVSYQGGK(ac)SIK (SEQ ID NO: 571) (Isoform 1 of Histone-lysine N-methyltransferase MLL3 [758], gene MLL3, inhibitor:DMSO): 0.42 log 2
- light to heavy ratio (L/H ratio) of acetylated peptide TLVLSDK(ac)HSPQK (SEQ ID NO: 523) (Isoform 1 of Histone-lysine N-methyltransferase MLL3 [2809], gene MLL3, inhibitor:DMSO): −0.46 log 2
- light to heavy ratio (L/H ratio) of acetylated peptide VK(ac)NELFK (SEQ ID NO: 565) (Isoform 1 of Hydroxyacyl-coenzyme A dehydrogenase mitochondrial [127], gene HADH, inhibitor:DMSO): 0.41 log 2
- light to heavy ratio (L/H ratio) of acetylated peptide LVAENK(ac)FGK (SEQ ID NO: 296) (Isoform 1 of Hydroxyacyl-coenzyme A dehydrogenase mitochondrial [301], HADH, drug:DMSO): 0.74 log 2
- light to heavy ratio (L/H ratio) of acetylated peptide K(ac)[…] (SEQ ID NO: 316) (Isoform 1 of L-lactate dehydrogenase A chain [318], LDHA, drug:DMSO): 1.00 log 2
- light to heavy ratio (L/H ratio) of acetylated peptide INK(ac)ALDK (SEQ ID NO: 344) (Isoform 1 of Myosin-9 [435], MYH9, drug:DMSO): 0.00 log 2
- light to heavy ratio (L/H ratio), log 2 scale, acetylated peptide INKALDK(ac)TK (SEQ ID NO: 802) (Isoform 1 of Myosin-9 [439], gene MYH9, drug:DMSO): 1.00
- light to heavy ratio (L/H ratio) of acetylated peptide FYK(ac)[…] (SEQ ID NO: 596) (Isoform 1 of N-alpha-acetyltransferase 50 NatE catalytic subunit [37], gene NAA50, inhibitor:DMSO): 0.45 log 2
- light to heavy ratio (L/H ratio), log 2 scale, acetylated peptide VYFK(ac)DTHPK (SEQ ID NO: 758) (Isoform 1 of NADH-cytochrome b5 reductase 3 [115], gene CYB5R3, drug:DMSO): 0.90
- light to heavy ratio (L/H ratio), log 2 scale, acetylated peptide […](ac)SK (SEQ ID NO: 767) (Isoform 1 of Peripherin [288], gene PRPH, drug:DMSO): 0.94
- light to heavy ratio (L/H ratio) of acetylated peptide K(ac)EYVFADSK (SEQ ID NO: 616) (Isoform 1 of Phosphatidylinositol-345-trisphosphate 5-phosphatase 1 [371], gene INPP5D, LOC646743, inhibitor:DMSO): 0.47 log 2
- light to heavy ratio (L/H ratio) of acetylated peptide VK(ac)ILFNK (SEQ ID NO: 561) (Isoform 1 of Polypyrimidine tract-binding protein 1 [368], gene PTBP1, inhibitor:DMSO): 0.40 log 2
- light to heavy ratio (L/H ratio) of acetylated peptide TACAINK(ac)VLMGR (SEQ ID NO: 584) (Isoform 1 of Protein FAM98A [297], gene FAM98A, inhibitor:DMSO): 0.43 log 2
- light to heavy ratio (L/H ratio) of acetylated peptide LMK(ac)YLLEQLK (SEQ ID NO: 585) (Isoform 1 of Protein MB21D1 [414], gene MB21D1, inhibitor:DMSO): 0.43 log 2
- light to heavy ratio (L/H ratio) of acetylated peptide VLSK(ac)[…] (SEQ ID NO: 294) (Isoform 1 of Protein SET [154], SET, drug:DMSO): 0.69 log 2
- light to heavy ratio (L/H ratio) of acetylated peptide […](ac)ALK (SEQ ID NO: 349) (Isoform 1 of RNA-binding protein with serine-rich domain 1 [218], RNPS1, drug:DMSO): 0.00 log 2
- light to heavy ratio (L/H ratio), log 2 scale, acetylated peptide […](ac)TDQAQDVK (SEQ ID NO: 765) (Isoform 1 of Signal recognition particle 9 kDa protein [52], gene SRP9, drug:DMSO): 0.93
- light to heavy ratio (L/H ratio), log 2 scale, acetylated peptide AMMEK(ac)LVK(ac)SISQLK (SEQ ID NO: 814) (Isoform 1 of Signal transducer and activator of transcription 2 [158:161], gene STAT2, drug:DMSO): 1.00
- light to heavy ratio (L/H ratio) of acetylated peptide DMCLEK(ac)DTLGLFLR (SEQ ID NO: 530) (Isoform 1 of U5 small nuclear ribonucleoprotein 200 kDa helicase [745], gene SNRNP200, inhibitor:DMSO): −0.41 log 2
- light to heavy ratio (L/H ratio) of acetylated peptide LEMSYSK(ac)FK (SEQ ID NO: 304) (Isoform 1 of UDP-N-acetylglucosamine--dolichyl-phosphate N-acetylglucosaminephosphotransferase [320], DPAGT1, drug:DMSO): 1.00 log 2
- light to heavy ratio (L/H ratio) of acetylated peptide PK(ac)PLLFK (SEQ ID NO: 544) (Isoform 1 of UDP-glucose:glycoprotein glucosyltransferase 1 [176], gene UGGT1, inhibitor:DMSO): 0.39 log 2
- light to heavy ratio (L/H ratio) of acetylated peptide TMSCSDK(ac)ILR (SEQ ID NO: 323) (Isoform 2 of Double-stranded RNA-specific adenosine deaminase [1013], ADAR, drug:DMSO): 0.00 log 2
- light to heavy ratio (L/H ratio) of acetylated peptide […](ac)[…] (SEQ ID NO: 336) (Isoform 2 of Fibronectin type-III domain-containing protein 3A [507], FNDC3A, drug:DMSO): 0.00 log 2
- light to heavy ratio (L/H ratio), log 2 scale, acetylated peptide FYEQFSK(ac)NIK (SEQ ID NO: 799) (Isoform 2 of Heat shock protein HSP 90-alpha [565], gene HSP90AA1, drug:DMSO): 1.00
- light to heavy ratio (L/H ratio) of acetylated peptide SK(ac)GK(ac)NSDEEAPK (SEQ ID NO: 615) (Isoform 2 of Inhibitor of growth protein 4 [145:147], gene ING4, inhibitor:DMSO): 0.47 log 2
- light to heavy ratio (L/H ratio) of acetylated peptide LSFISVGNK(ac)FK (SEQ ID NO: 521) (Isoform 2 of Myosin-VI [646], gene MYO6, inhibitor:DMSO): −0.49 log 2
- light to heavy ratio (L/H ratio) of acetylated peptide AEK(ac)[…] (SEQ ID NO: 503) (Isoform 2 of Neutral alpha-glucosidase AB [242], gene GANAB, inhibitor:DMSO): −0.71 log 2
- light to heavy ratio (L/H ratio) of acetylated peptide GAK(ac)PVVVLQK (SEQ ID NO: 611) (Isoform 2 of Nipped-B-like protein [1000], gene NIPBL, inhibitor:DMSO): 0.47 log 2
- light to heavy ratio (L/H ratio) of acetylated peptide LIAGNK(ac)[…] (SEQ ID NO: 512) (Isoform 2 of Nuclear factor related to kappa-B-binding protein [1262], gene NFRKB, inhibitor:DMSO): −0.58 log 2
- light to heavy ratio (L/H ratio) of acetylated peptide […](ac)K (SEQ ID NO: 626) (Isoform 2 of Septin-7 [207], gene, inhibitor:DMSO): 0.49 log 2
- light to heavy ratio (L/H ratio) of acetylated peptide YQQFK(ac)DFQR (SEQ ID NO: 258) (Isoform 2 of Spliceosome RNA helicase DDX39B [349], SNORD84, DDX39B, drug:DMSO): 0.39 log 2
- light to heavy ratio (L/H ratio) of acetylated peptide GLCEK(ac)PLASAAAK (SEQ ID NO: 536) (Isoform 2 of Transportin-3 [513], gene TNPO3, inhibitor:DMSO): −0.39 log 2
- light to heavy ratio (L/H ratio), log 2 scale, acetylated peptide LEPLK(ac)PLK (SEQ ID NO: 772) (Isoform 3 of Proline-rich protein 12 [1223], gene PRR12, drug:DMSO): 1.00
- light to heavy ratio (L/H ratio), log 2 scale, acetylated peptide DQTK(ac)SIVEK (SEQ ID NO: 810) (Isoform 3 of Reticulon-3 [217], gene RTN3, drug:DMSO): 1.00
- light to heavy ratio (L/H ratio) of acetylated peptide LAAFGQLHK(ac)[…] (SEQ ID NO: 570) (Isoform 5 of Interleukin enhancer-binding factor 3 [332], gene ILF3, inhibitor:DMSO): 0.41 log 2
